Like-named read-outs stand apart in the source and are kept apart here.

The conditions of data set [1]: rats orally; cited from earlier work.
The subject of data set [2] is T47D breast cancer tissue cells. The data set is described as follows: MTS breast cancer mitochondrial activity assay. Type of data set: cell-based. As to conditions: for MTS suppression ratio (mean OD treated / mean OD control), 24 h: culture time 24 h; for MTS suppression ratio (mean OD treated / mean OD control), 24 h / MTS suppression ratio (mean OD treated / mean OD control), 48 h: 1.0 = no effect; for MTS suppression ratio (mean OD treated / mean OD control), 48 h: culture time 48 h. The method, then: In addition to and equal to the effects of high HLB surfactants for comparative testing. These comparative studies were performed and results are reported in the above table. Metabolism was comparatively measured with controls and other extracts as to the reduction of mitochondrial activity, (MTS). This compound is a substrate for the mitochondrial enzymes—and is reduced to a blue formazan product.
In the first experiments—The extracted therapeutic test agents were derived from specified tissue. Water extracts of the crushed tissue, were also prepared. For the later experiments, specific varieties of extracts were prepared and examined: Cells were obtained from American Type Culture Collection (ATCC, Washington, D.C.) and were cultured as recommended by ATCC. Experiments were performed in 96 well microtiter plates. Each well contained 1.0×10^4 cells suspended in a total volume of […]. Test wells contained the designated amount of extract in cell culture medium. Control wells contained the same amount of extract solvent in medium. Plates were incubated in an atmosphere of 5% C02 for 24 or 48 hours with extract or solvent. At this time, […] were added to each well and incubation was continued for an additional 4 hours after which time the optical density (OD) at […] of each well was recorded. In each experiment, each sample was assayed in triplicate and the mean optical density (OD) for the three wells containing the same culture was calculated.
Data are presented as suppression ratios. The suppression ratio defined here as the mean optical density (OD) for the wells containing extract divided by the mean optical density (OD) for the control wells.
The purpose of the work was to determine which therapeutic agent extracts (further separated by chromatography) explored through this methodology for anti-cancer activity. The data presented here represents semi-quantitative anti-cancer screening tests. Extracts with ratios in the range 0.51-0.74 were considered moderately active and therefore appropriate for considered use along with preventive anti-cancer treatment and active anti-cancer treatment. In co-use with anti-cancer treatment and radiation treatment, may lessen the dose and the side effects of these current therapeutic agents. Extracts with metabolism suppression ratios less than or equal to 0.5 represented a suppression of metabolism of at least 50% or greater than that of the controls and were considered definitely active potential anti-cancer agents, as was the case of High HLB Tween 80 with ethylene maturation apoptosis promoting factor with a 76% suppression of mitochondrial metabolism of cancer cells.

Data set [3] in a line: Circulation, blood viscosity and sedimentation rate with intermediate HLB lipid. Type of data set: in vivo. As to conditions: HLB 8 to 11. From the text:
The amount of surface-active polar lipid to include in the composition can be determined by viscosity measurements. Tissue concentration can be measured by viscosity (as used in blood serum which normally is 1.12 to 1.22 centipoise with upper limit of three). In the case of the intermediate HLB 8 to 11 (as exemplified by PC phosphatidylcholine when so used) circulation is improved 25% however there is no change in viscosity or the red blood cell sedimentation rate at these HLB ranges because of the fact that biophysical functional effects is upon the cell membrane. With its use the red cell membrane becomes more plastic, and is made more pliable thereby enhancing circulation and oxygenation.
Component No. 2 contains self-vesiculating essence of HLB 8 to 11 or 12, ideally 10 to 11, cell membrane forming and repairing liquid crystal phosphatidylcholine (PC), thereby increasing pliability of the red cell, blood vessel and endothelial membrane enhancing circulatory function by 25%. Component No. 2 optionally contains high HLB surfactants with packing parameters that not only enhance biologic function and efficiency of protein enzymes and their substrate but also promotes protein refolding and thereby normalizing biologic function. This helps to normalize the biologic function of disease promoting protein structures of Alzheimer's disease, Parkinson's disease, and Mad Cow disease. […]

The conditions of data set [4]: rats and mice; cited from earlier work.

Consider `CCCCCCCCCCCCOS(=O)(=O)[O-].[Na+]` [sodium lauryl sulfate], for which the “LD 50” value in data set [1] is 1288 mg per kilogram.

In the case of phosphatidylcholine [PC], in data set [2] (T47D cells), the “MTS suppression ratio (mean OD treated / mean OD control), 24 h” value came out at 0.92 and the “MTS suppression ratio (mean OD treated / mean OD control), 48 h” value was determined as 0.98. In data set [3], the “improvement of circulation / circulatory function” value is listed as 25%.

On to polyglycerol polyricinolate [PGPR], for which the “LD 50” value in data set [4] was 7.5 ml per kilogram.

Regarding “polyoxyethylene Sorbitan Monooleate [Tween 80]”, the “suppression of mitochondrial metabolism of cancer cells” value in data set [2] is 76%. Moreover, in data set [2] (T47D cells), the “% normalization of Breast cancer cells” value is 76%; the “MTS suppression ratio (mean OD treated / mean OD control), 24 h” value was determined as 0.48; the “MTS suppression ratio (mean OD treated / mean OD control), 48 h” value came to 0.24. Moreover, in data set [4], the “LD 50” value was 7.5 ml per kilogram.

The values above are taken from patent US20050260181A1, “Compositions and methods for tissue repair” (Immunopath Profile, Inc., priority 2004, published 2005).
